Results taken from patent publication US12256735B2, “Insecticidal combinations” (UPL LTD, priority 2018, dated 2025).

Tests used:
[1] = tested on: Lucinodes arbonalis; assay: Trial of efficacy on Lucinodes arbonalis in Brinjal; type: in vivo
Method: Trials were conducted to test the efficacy of the combination of Chlorantraniliprole+Bifenthrin+Bifenazate on Lucinodes arbonalis in Brinjal: […]

[2] = tested on: mites in Brinjal; assay: Trial of efficacy on mites in Brinjal; type: in vivo
Method: Trials were conducted to test the efficacy of the combination of Chlorantraniliprole+Bifenthrin+Bifenazate on mites in Brinjal: […]

COc1ccc(-c2ccccc2)cc1NNC(=O)OC(C)C [Bifenazate]
% mortality 3 DAA ([1]; dose 150 gm. ai/ha): 9.9%
% mortality 7 DAA ([1]; dose 150 gm. ai/ha): 12%
% mortality 10 DAA ([1]; dose 150 gm. ai/ha): 10.9%
% mortality 14 DAA ([1]; dose 150 gm. ai/ha): 7.9%
% mortality 3 DAA ([2]; dose 150 gm. ai/ha): 65%
% mortality 7 DAA ([2]; dose 150 gm. ai/ha): 95.1%
% mortality 10 DAA ([2]; dose 150 gm. ai/ha): 85%
% mortality 14 DAA ([2]; dose 150 gm. ai/ha): 75%

Cc1c(COC(=O)[C@@H]2[C@H](/C=C(\Cl)C(F)(F)F)C2(C)C)cccc1-c1ccccc1 (racemic) [Bifenthrin]
% mortality 3 DAA ([1]; dose 40 gm. ai/ha): 55%
% mortality 7 DAA ([1]; dose 40 gm. ai/ha): 65%
% mortality 10 DAA ([1]; dose 40 gm. ai/ha): 53%
% mortality 14 DAA ([1]; dose 40 gm. ai/ha): 41%
% mortality 3 DAA ([2]; dose 40 gm. ai/ha): 75%
% mortality 7 DAA ([2]; dose 40 gm. ai/ha): 80%
% mortality 10 DAA ([2]; dose 40 gm. ai/ha): 75%
% mortality 14 DAA ([2]; dose 40 gm. ai/ha): 65%

CNC(=O)c1cc(Cl)cc(C)c1NC(=O)c1cc(Br)nn1-c1ncccc1Cl [Chlorantraniliprole]
% mortality 3 DAA ([1]; dose 30 gm. ai/ha): 80%
% mortality 7 DAA ([1]; dose 30 gm. ai/ha): 90.1%
% mortality 10 DAA ([1]; dose 30 gm. ai/ha): 89.1%
% mortality 14 DAA ([1]; dose 30 gm. ai/ha): 79%
% mortality 3 DAA ([2]; dose 30 gm. ai/ha): 9.9%
% mortality 7 DAA ([2]; dose 30 gm. ai/ha): 8.9%
% mortality 10 DAA ([2]; dose 30 gm. ai/ha): 7.9%
% mortality 14 DAA ([2]; dose 30 gm. ai/ha): 10.9%
